Reference: publication PMC12606622, “Assessment of the Binding Patterns for Endocrine Disrupting Chemicals in Complex with Estrogen and Androgen Receptors by Leveraging the Asclepios Enalos KNIME Nodes” (Journal of Chemical Information and Modeling, 2025)
Where two headings read alike, the source gives them in different places.

Key:
human ERα (ESR1) = target: T1, human ERα (ESR1) (Homo sapiens, UniProt P03372); assay: ERα mammalian one-hybrid reporter gene assay in transiently transfected HEK293 cells; type: cell-based; settings: for E max [FC]: fold change vs 0.1% DMSO, at conc. BPA 10, BPF 10, BPS 30, ZEA 0.1 μM
T1 sequence (P03372 251-595): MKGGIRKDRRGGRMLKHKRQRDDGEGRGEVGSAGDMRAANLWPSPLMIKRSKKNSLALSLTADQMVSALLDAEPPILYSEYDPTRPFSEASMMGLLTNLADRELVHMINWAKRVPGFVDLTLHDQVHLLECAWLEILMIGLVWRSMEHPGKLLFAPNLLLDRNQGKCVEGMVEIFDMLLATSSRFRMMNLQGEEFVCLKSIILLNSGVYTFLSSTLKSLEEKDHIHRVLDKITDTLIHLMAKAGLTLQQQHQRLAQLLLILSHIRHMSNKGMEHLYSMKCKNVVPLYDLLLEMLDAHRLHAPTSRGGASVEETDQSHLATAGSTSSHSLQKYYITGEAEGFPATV
Protocol: (§1) HEK293 cells (ACC305, DSMZ, Braunschweig, Germany) were cultivated at 37 °C in 5% CO2 in DMEM supplemented with 10% FBS, 2 mM L-glutamine, 1 mM sodium pyruvate, 100 U/mL penicillin, and 100 μg/mL streptomycin. For exposure studies, cells were cultivated in phenol red-free DMEM, supplemented with 1% dextran-coated charcoal-treated FBS.
Per well of a 96-well plate, a plasmid DNA mixture consisting of 0.26 μg of pGL4-G5, 0.04 μg of pM-ESR1 (251–495), and 0.005 μg of pGL4.75 [hRluc/CMV] was diluted with 150 mM NaCl to a final volume of 25 μL. […] Aliquot (0.6 μL) of 1 mg/mL PEI MAX 40K solution was diluted to 25 μL with 150 mM NaCl. The diluted PEI MAX 40K was added to the diluted DNA mixture, and the mixture was incubated at room temperature for 15 min. In parallel, HEK 293 cells were adjusted to 40,000 cells in 200 μL of culture medium per well. The transfection mixture (50 μL) was added to the cell suspension, gently mixed, and pipetted into a well of a 96-well plate. The next day, the transfected cells were treated with chemicals for 24 h before cell lysis with 50 μL per well of passive lysis buffer (Promega). Firefly and Renilla luciferase activities were measured as described previously. Results were normalized for transfection efficiency by dividing firefly luciferase activity by Renilla luciferase activity, measured from the same well. Assays were performed in technical triplicate in each independent experiment. […] Concentration response curves were fitted with nonlinear regression using the formula with a variable slope (four parameters) or the formula with a standard slope (three parameters) of GraphPad Prism 10.4.1 (GraphPad Software, Boston, MA, USA), as indicated in the respective figure legends.
ERα mammalian one-hybrid assays were executed in transiently transfected HEK293 cells, which were treated afterward for 24 h with the indicated concentrations of chemicals. Data are presented as a mean ± SD fold change (n ≥ 3 independent experiments) with respect to the normalized reporter gene activity of cells treated with 0.1% DMSO only.

human AR = target: T2, human AR (Homo sapiens, UniProt P10275); type: cell-based; settings: for % residual agonist activity: at 30 μM, 3 nM 11-ketoDHT only = 100%
T2 sequence (P10275 640-920): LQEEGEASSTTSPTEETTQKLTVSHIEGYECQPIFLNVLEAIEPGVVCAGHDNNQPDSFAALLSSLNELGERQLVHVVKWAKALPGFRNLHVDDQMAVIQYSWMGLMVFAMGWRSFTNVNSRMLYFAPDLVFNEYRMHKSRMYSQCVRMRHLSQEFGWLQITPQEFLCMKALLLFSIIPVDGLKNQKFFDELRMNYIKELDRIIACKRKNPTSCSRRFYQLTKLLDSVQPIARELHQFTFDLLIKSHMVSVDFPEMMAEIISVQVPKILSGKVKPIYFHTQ
Protocol: as §1
In the case of the N–C-terminal interaction assay of AR, the ESR1 effector plasmid was replaced by 0.02 μg each of pVP16-AR (1–503) and pM-AR (640–920). Aliquot (0.6 μL) of 1 mg/mL PEI MAX 40K solution was diluted to 25 μL with 150 mM NaCl. The diluted PEI MAX 40K was added to the diluted DNA mixture, and the mixture was incubated at room temperature for 15 min. In parallel, HEK 293 cells were adjusted to 40,000 cells in 200 μL of culture medium per well. The transfection mixture (50 μL) was added to the cell suspension, gently mixed, and pipetted into a well of a 96-well plate. The next day, the transfected cells were treated with chemicals for 24 h before cell lysis with 50 μL per well of passive lysis buffer (Promega). Firefly and Renilla luciferase activities were measured as described previously. Results were normalized for transfection efficiency by dividing firefly luciferase activity by Renilla luciferase activity, measured from the same well. Assays were performed in technical triplicate in each independent experiment. […] Concentration response curves were fitted with nonlinear regression using the formula with a variable slope (four parameters) or the formula with a standard slope (three parameters) of GraphPad Prism 10.4.1 (GraphPad Software, Boston, MA, USA), as indicated in the respective figure legends.
AR N–C-terminal interaction mammalian two-hybrid assays were run in transiently transfected HEK293 cells, which were treated afterward for 24 h with the indicated concentrations of chemicals. […] Data are presented as a mean ± SD fold change (n = 4 independent experiments) with respect to the normalized reporter gene activity of cells treated with 0.1% DMSO only. […] Data are presented as mean ± SD (n = 3 independent experiments) with respect to the normalized reporter gene activity of cells treated with 3 nM 11-ketoDHT only, which was designated as 100%. Curves were fitted with nonlinear regression using the formula with a standard slope (three parameters) of GraphPad Prism 10.4.1.

[1] = HEK293, 24 h treatment, four-parameter fit, n ≥ 3, read-out: EC50 mean (activating ERα)

Row | SMILES | E max [FC] (human ERα (ESR1)) | % residual agonist activity (human AR) | EC50 (human ERα (ESR1); [1]) | further results
1 | C[C@H]1CCCC(=O)CCC/C=C/c2cc(O)cc(O)c2C(=O)O1 [Zearalenone] | 89.9 FC | 1.5% |  | EC50 (human ERα (ESR1)): 4.9 nM; potency fold higher than BPA (ERα activation) (human ERα (ESR1); ratio of EC50 values, vs BPA): 120 fold; potency fold higher than BPF (ERα activation) (human ERα (ESR1); ratio of EC50 values, vs BPF): 430 fold; potency fold higher than BPS (ERα activation) (human ERα (ESR1); ratio of EC50 values, vs BPS): 1060 fold; IC50 (human AR): 3700 nM
2 | C[C@]12CCC(=O)C[C@@H]1CC[C@H]1[C@@H]3CC[C@H](O)[C@@]3(C)CC(=O)[C@@H]12 [11-ketoDHT, 11-Ketodihydrotestosterone, reference compound] |  |  |  | EC50 (human AR; agonist mode, HEK293, 24 h, n = 4, 95% CI 2.3–4.7 nM, read-out: EC50 (induction of AR N–C interaction)): 3.3 nM
3 | O=S(=O)(c1ccc(O)cc1)c1ccc(O)cc1 [Bisphenol S] | 48.5 FC |  | 5200 nM | 
4 | CC(C)(c1ccc(O)cc1)c1ccc(O)cc1 [Bisphenol A] | 19.6 FC | 3.1% |  | IC50 (human AR; read-out: IC50 mean (inhibiting AR)): 980 nM
5 | Oc1ccc(Cc2ccc(O)cc2)cc1 [Bisphenol F] | 56.1 FC |  | 2100 nM | 
